Reference: patent US8454938B2, “Treatment of respiratory diseases” (Solaeromed Inc., priority 2005, dated 2013)

Test system: allergic bronchoconstriction in Brown Norway rats
Test: Allergic asthma model: OVA-sensitized and challenged Brown Norway rats, whole body plethysmography (Penh)
Type: in vivo, Brown Norway rat
Method: An animal model of allergic asthma was developed by sensitizing Brown Norway rats (BNR) to ovalbumin (OVA) and subsequently challenging them with the same allergen.
Male Brown Norway rats (BN/SsdNhsd) 150-199 g were used. A stock solution prepared containing the following ingredients: 10 mL 0.9% of sterile saline solution, 100 μL of ovalbumin solution 1 mg/mL in saline, 1.5 g Al(OH)3 and 10 μL Bordetella Pertussis purified toxin stock solution 500 ng/mL. The solution is mixed thoroughly but not vortexed and then injected intraperitoneally into each rat using a 1 cc syringe and 25-gauge needle.
The rat is placed in the whole body plethysmograph/chamber for approximately 30 minutes in order to calm down. Baseline pulmonary function is recorded for 30 minutes. A solution of ovalbumin 5% in saline is aerosolized for 5 minutes using an ultrasonic nebulizer from Buxco®. The pulmonary function is recorded for 6 hrs during which the effects of different treatments on airway resistance were evaluated.
A whole body plethysmograph from Buxco® was used to monitor pulmonary function and the effect of perfluorocarbon fluids (PFCs) and/or different gas mixture containing CO2 on constricted airways. The plethysmograph consists of a chamber with a pressure transducer along with humidity and temperature probes connected to an amplifier Max II, which is connected to a personal computer and managed by BioSystem XA software. In addition, there are two flow regulators to pump the air or CO2 containing gas mixture in and out of the chamber, and an ultrasonic nebulizer. The primary advantage of the Buxco® methodology is that it is non-invasive and minimizes stress, with animals allowed to freely roam within the measuring chamber. The evaluation of bronchoconstriction was achieved using the Penh (enhanced pause) (an index of airway obstruction) [see Hamelmann et al., (1997) Noninvasive measurement of airway responsiveness in allergic mice using barometric plethysmography, Am J Respir Crit Care Med […] September; 156(3 Pt 1):766-775, incorporated herein by reference]. […]
A gas mixture containing air and CO2 (2, 5, 8, 10 and 20%, respectively, by volume) was delivered to the plethysmograph chamber as described above. The gas was monitored (O2 and CO2) using a gas analyzer from Buxco® and pulmonary function was recorded during and after cessation of the treatment. All treatments were delivered during the late phase response to OVA challenge. […]
FC-43 is placed in the Arcotech dual chamber jet nebulizer and driven by a gas mixture containing air and 5% CO2 by volume. The concentration of FC-43 was determined as outlined above and averaged about 39 mg/liter. The treatment was delivered for 10 minutes. Two minutes after cessation of the first treatment, salbutamol (1 mg/ml) was delivered for 5 minutes using an ultrasonic nebulizer.
FC-77 is placed in the Arcotech dual chamber jet nebulizer and driven by a gas mixture containing air and 5% CO2 by volume. The treatment was delivered for 10 minutes. For technical reasons pulmonary function was evaluated immediately after cessation of the treatment.
Perfluorodecalin is placed in the Arcotech dual chamber jet nebulizer and driven by a gas mixture containing air and 5% CO2 by volume. The treatment was delivered for 10 minutes. For technical reasons pulmonary function was evaluated immediately after cessation of the treatment.
Perfluorooctylbromide is placed in the Arcotech dual chamber jet nebulizer and driven by a gas mixture containing air and 20% CO2 by volume. The treatment was delivered for 10 minutes. For technical reasons pulmonary function was evaluated immediately after cessation of the treatment.
A mixture of approximately equal amounts of FC-43 and FC-77 was placed in the Arcotech dual chamber jet nebulizer and driven by a gas mixture containing air and 5% CO2 by volume. The treatment was delivered for 10 minutes. […]

## CC(C)(C)NCC(O)c1ccc(O)c(CO)c1 (stereo not shown) [salbutamol]
Salbutamol 1 mg/ml alone
  drop in Penh: approximately 60%
  duration of drop in Penh before returning to pretreatment levels: 5 min
Salbutamol 1 mg/ml given after PFC/CO2 treatment
  duration of response: never returned to pre-treatment levels
Salbutamol 1 mg/ml given after PFC/CO2 treatment (FC-43 with 5% CO2 in air, 10 minutes)
  drop in Penh (response): approximately 70%

## O=C=O [CO2, carbon dioxide]
2%, 5%, 8%, 10% and 20% CO2 by volume, balance air
  bronchodilation by CO2 alone: acts as a bronchodilator
20% CO2 in air alone
  duration of bronchodilation: approximately 2 minutes
20% and 8% CO2 compared with 2% and 5% CO2 in air, groups of rats
  relaxation of constricted airways (percent reduction of bronchoconstriction), comparison between CO2 concentrations: significantly (P<0.05) higher
